Source: EPA's ToxRefDB 2

What was measured:
mouse [1] = conditions: Subchronic oral toxicity in rodents, b6c3f1, Feed, dose end: 13 week, group: systemic
hamster = conditions: Subchronic oral toxicity in rodents, golden syrian, Feed, dose end: 13 week, group: systemic
rat [2] = conditions: Subchronic oral toxicity in rodents, sprague dawley, Feed, dose end: 13 week, group: systemic
rat [3] = conditions: Subchronic oral toxicity in rodents, wistar, Feed, dose end: 13 week, group: systemic
rat [4] = conditions: Combined chronic toxicity/carcinogenicity, fischer, Oral, Feed, dose end: 2 year, group: systemic
dog = conditions: Chronic toxicity, beagle, Oral, Feed, dose end: 52 week, group: systemic, systemic / in life observation / clinical signs / feces
rat [5] = conditions: Combined chronic toxicity/carcinogenicity; fischer; Oral; Feed; dose end: 365 day; group: systemic; systemic / pathology microscopic / liver / hepatocellular carcinoma + systemic / pathology microscopic / testes / adenoma + systemic / in …
mouse [6] = conditions: Combined chronic toxicity/carcinogenicity; other; Oral; Feed; dose end: 365 day; group: systemic; systemic / in life observation / body weight / body weight
rat [7] = conditions: Combined chronic toxicity/carcinogenicity, fischer, Oral, Feed, dose end: 24 month
rat [8] = conditions: Combined chronic toxicity/carcinogenicity, fischer, Oral, Feed, dose end: 24 month; remark: listed apart in the source
rat [9] = conditions: Developmental neurotoxicity ChE Inhibition study; sprague dawley; Oral; Gavage/Intubation; dose end: 21 PND; group: cannot be grouped; cholinesterase / cholinesterase / cholinesterase / erythrocyte cholinesterase (che)
mouse [10] = conditions: Carcinogenicity, b6c3f1, Oral, Feed, dose end: 18 month
[11] = systemic / in life observation / body weight / body weight + systemic / in life observation / body weight / body weight gain + systemic / …
[12] = systemic / pathology microscopic / liver / cytoplasmic alteration + systemic / clinical chemistry / cholesterol / cholesterol + systemic / …
[13] = systemic / clinical chemistry / alkaline phosphatase (alp/alk) / alkaline phosphatase (alp/alk) + systemic / organ weight / kidney / …
[14] = systemic / clinical chemistry / sodium / sodium
[15] = systemic / hematology / blood clotting / blood clotting - prothrombin time + systemic / hematology / blood clotting / blood clotting - …
[16] = systemic / clinical chemistry / urea nitrogen / urea nitrogen
[17] = systemic / hematology / platelet / platelet + systemic / in life observation / body weight / body weight + systemic / in life observation / …
[18] = discoloration + systemic / hematology / blood clotting / blood clotting - activated…
[19] = group: cholinesterase, cholinesterase / cholinesterase / cholinesterase / erythrocyte cholinesterase (che)
[20] = group: cholinesterase, cholinesterase / cholinesterase / cholinesterase / plasma cholinesterase (che)
[21] = group: cholinesterase, cholinesterase / cholinesterase / cholinesterase / plasma cholinesterase (che) + cholinesterase / cholinesterase / cholinesterase / brain …
[22] = group: systemic, systemic / hematology / mean corpuscular (cell) volume (mcv) / mean corpuscular (cell) volume (mcv) + systemic / hematology / mean …
[23] = group: systemic, systemic / in life observation / food consumption / food consumption + systemic / pathology microscopic / parathyroid gland / hyperplasia
[24] = group: systemic, systemic / pathology microscopic / parathyroid gland / hyperplasia
[25] = group: systemic, systemic / pathology microscopic / parathyroid gland / hyperplasia + systemic / hematology / erythrocyte (rbc) count differential / …
[26] = group: cholinesterase, cholinesterase / cholinesterase / cholinesterase / erythrocyte cholinesterase (che) + cholinesterase / cholinesterase / cholinesterase / …
[27] = group: systemic, systemic / in life observation / body weight / body weight + systemic / in life observation / food consumption / food consumption + systemic…

Cc1cccc(Nc2cc(Cl)nc(SCC(=O)O)n2)c1C [Pirinixic acid]
LOAEL (mouse [1]; [11]): 22 mg/kg/day
NOAEL (mouse [1]; [11]): 12 mg/kg/day
LEL (mouse [1]; [12]): 0.9 mg/kg/day
NEL (mouse [1]; [12]): < 0.9 mg/kg/day
LOAEL (hamster; [11]): 0.7 mg/kg/day
NOAEL (hamster; [11]): 0.4 mg/kg/day
LEL (hamster; [12]): 0.4 mg/kg/day
NEL (hamster; [12]): < 0.4 mg/kg/day
LEL (rat [2]; [13]): 0.3 mg/kg/day
NEL (rat [2]; [13]): < 0.3 mg/kg/day
NOAEL (rat [2]; [13]): 0.6 mg/kg/day
LOAEL (rat [2]; systemic / pathology microscopic / liver / cytoplasmic alteration + systemic / in life observation / body weight / body weight + systemic / …): 3 mg/kg/day

CC(C)N1C(=O)c2ccccc2NS1(=O)=O [Bentazon]
LEL (rat [3]; [14]): 25.3 mg/kg/day
NEL (rat [3]; [14]): < 25.3 mg/kg/day
LOAEL (rat [3]; [15]): 243 mg/kg/day
NOAEL (rat [3]; [15]): 77.8 mg/kg/day
LEL (rat [4]; [16]): 9 mg/kg/day
NEL (rat [4]; [16]): < 9 mg/kg/day
LOAEL (rat [4]; [17]): 180 mg/kg/day
NOAEL (rat [4]; [17]): 35 mg/kg/day
LOAEL (dog; discoloration): 13.1 mg/kg/day
NEL (dog; [18]): 3.2 mg/kg/day
NOAEL (dog; [18]): 3.2 mg/kg/day
LEL (dog; discoloration + systemic / in life observation / clinical signs / [other]): 13.1 mg/kg/day

NC(=O)CCCCC(N)=O [Adipamide]
LEL (rat [5]): 1200 mg/kg/day
LOAEL (rat [5]): > 1200 mg/kg/day
NEL (rat [5]): < 1200 mg/kg/day
NOAEL (rat [5]): ≥ 1200 mg/kg/day
LEL (mouse [6]): 3600 mg/kg/day
LOAEL (mouse [6]): > 3600 mg/kg/day
NEL (mouse [6]): < 3600 mg/kg/day
NOAEL (mouse [6]): ≥ 3600 mg/kg/day

CCOC(=O)CC(SP(=S)(OC)OC)C(=O)OCC (stereo not given) [Malathion]
LEL (rat [7]; [19]): 5 mg/kg/day
NEL (rat [7]; [19]): < 5 mg/kg/day
LOAEL (rat [7]; [20]): 29 mg/kg/day
NOAEL (rat [7]; [21]): 4 mg/kg/day
LOAEL (rat [7]; [22]): 359 mg/kg/day
NOAEL (rat [7]; [22]): 29 mg/kg/day
LEL (rat [7]; [23]): 4 mg/kg/day
NEL (rat [7]; [23]): < 4 mg/kg/day
LOAEL (rat [8]; [20]): 29 mg/kg/day
NEL (rat [8]; [21]): 4 mg/kg/day
NOAEL (rat [8]; [21]): 4 mg/kg/day
LEL (rat [8]; group: cholinesterase, cholinesterase / cholinesterase / cholinesterase / plasma cholinesterase (che) + cholinesterase / cholinesterase / cholinesterase / …): 29 mg/kg/day
LEL (rat [8]; [24]): 4 mg/kg/day
NEL (rat [8]; [24]): < 4 mg/kg/day
LOAEL (rat [8]; [25]): > 739 mg/kg/day
NOAEL (rat [8]; [25]): ≥ 739 mg/kg/day
LEL (rat [9]): 5 mg/kg/day
LOAEL (rat [9]): 5 mg/kg/day
NEL (rat [9]): < 5 mg/kg/day
NOAEL (rat [9]): < 5 mg/kg/day
LEL (mouse [10]; [26]): 143 mg/kg/day
LOAEL (mouse [10]; [26]): 143 mg/kg/day
NEL (mouse [10]; [26]): 17.4 mg/kg/day
NOAEL (mouse [10]; [26]): 17.4 mg/kg/day
LEL (mouse [10]; [27]): 1480 mg/kg/day
LOAEL (mouse [10]; [27]): 1480 mg/kg/day
NEL (mouse [10]; [27]): 143 mg/kg/day
NOAEL (mouse [10]; [27]): 143 mg/kg/day
